# According to US11439618B2, “Compositions and methods for lowering triglycerides” (Amarin Pharmaceuticals Ireland Limited, priority 2009, dated 2022):
# Assay: Essential fatty acid (EFA) parameters in plasma and RBC, gas chromatography of fatty acid methyl esters
# Assay type: in vivo, human
# Procedure: Blood samples (10 mL) were collected at Visit 1 (screening) and at Visits 4, 5 and 6. Analysis was performed by MSR Lipid Analysis, Scottish Crop Research Institute, Dundee, UK. The screening sample acted as baseline for the EFA measurements. Lipid was extracted from plasma, serum and RBC suspensions and converted into fatty acid methyl esters which were analyzed by gas chromatography to give fatty acid profiles as micrograms fatty acid per gram of sample (μgFA/g) and normalized area percent.
# RBC and plasma EFA data were collected at baseline, Day 14, 28 and 42 and summarized by visit for each treatment group. Change from baseline and percent change from baseline were also summarized. ANCOVA comparison of ethyl-EPA dose groups and ethyl-EPA versus placebo was performed.
# Notable changes for these parameters occurred in the ethyl-EPA treatment groups at Days 14, 28 and 42 compared to placebo.
smiles,measurement,setting,value
"CC/C=C\C/C=C\C/C=C\C/C=C\C/C=C\CCCC(=O)OCC [Ethyl-EPA, all-cis eicosa-5,8,11,14,17-pentaenoic acid ethyl ester]",AA Mean at Baseline,"RBC, 1 g daily group, Baseline",171.2 µg/g
same,DGLA Mean at Baseline,"RBC, 1 g daily group, Baseline",23.0 µg/g
same,DHA Mean at Baseline,"RBC, 1 g daily group, Baseline",66.5 µg/g
same,DPAn-3 Mean at Baseline,"RBC, 1 g daily group, Baseline",34.1 µg/g
same,EPA Mean at Baseline,"RBC, 1 g daily group, Baseline",19.8 µg/g
same,EPA/AA Mean (SD) at Baseline,"RBC, 1 g daily group, Baseline",0.1 (0.07)
same,AA Mean change from Baseline,"RBC, 1 g daily, Day 14",-8.1 µg/g
same,DGLA Mean change from Baseline,"RBC, 1 g daily, Day 14",-2.7 µg/g
same,DHA Mean change from Baseline,"RBC, 1 g daily, Day 14",-4.6 µg/g
same,DPAn-3 Mean change from Baseline,"RBC, 1 g daily, Day 14",0.9 µg/g
same,EPA Mean change from Baseline,"RBC, 1 g daily, Day 14",12.3 µg/g
same,EPA/AA Mean (SD) change from Baseline,"RBC, 1 g daily, Day 14",0.1 (0.04)
same,AA Mean change from Baseline,"RBC, 1 g daily, Day 28",-17.0 µg/g
same,DGLA Mean change from Baseline,"RBC, 1 g daily, Day 28",-3.8 µg/g
same,DHA Mean change from Baseline,"RBC, 1 g daily, Day 28",-6.4 µg/g
same,DPAn-3 Mean change from Baseline,"RBC, 1 g daily, Day 28",3.3 µg/g
same,EPA Mean change from Baseline,"RBC, 1 g daily, Day 28",14.5 µg/g
same,EPA/AA Mean (SD) change from Baseline,"RBC, 1 g daily, Day 28",0.1 (0.05)
same,AA Mean change from Baseline,"RBC, 1 g daily, Day 42",-14.2 µg/g
same,DGLA Mean change from Baseline,"RBC, 1 g daily, Day 42",-3.5 µg/g
same,DHA Mean change from Baseline,"RBC, 1 g daily, Day 42",-7.0 µg/g
same,DPAn-3 Mean change from Baseline,"RBC, 1 g daily, Day 42",6.5 µg/g
same,EPA Mean change from Baseline,"RBC, 1 g daily, Day 42",17.6 µg/g
same,EPA/AA Mean (SD) change from Baseline,"RBC, 1 g daily, Day 42",0.1 (0.06)
same,"AA LS Mean, 1 or 2 g versus 4 g","RBC, 1 g versus 4 g",8.4 µg/g
same,"DGLA LS Mean, 1 or 2 g versus 4 g","RBC, 1 g versus 4 g",1.5 µg/g
same,"DHA LS Mean, 1 or 2 g versus 4 g","RBC, 1 g versus 4 g",1.0 µg/g
same,"DPAn-3 LS Mean, 1 or 2 g versus 4 g","RBC, 1 g versus 4 g",-6.2 µg/g
same,"EPA LS Mean, 1 or 2 g versus 4 g","RBC, 1 g versus 4 g",-24.4 µg/g
same,"EPA/AA LS Mean, 1 or 2 g versus 4 g","RBC, 1 g versus 4 g",−0.18
same,AA Mean at Baseline,"RBC, 2 g daily group, Baseline",172.8 µg/g
same,DGLA Mean at Baseline,"RBC, 2 g daily group, Baseline",23.0 µg/g
same,DHA Mean at Baseline,"RBC, 2 g daily group, Baseline",64.8 µg/g
same,DPAn-3 Mean at Baseline,"RBC, 2 g daily group, Baseline",33.2 µg/g
same,EPA Mean at Baseline,"RBC, 2 g daily group, Baseline",18.9 µg/g
same,EPA/AA Mean (SD) at Baseline,"RBC, 2 g daily group, Baseline",0.1 (0.06)
same,AA Mean change from Baseline,"RBC, 2 g daily, Day 14",-3.1 µg/g
same,DGLA Mean change from Baseline,"RBC, 2 g daily, Day 14",-2.6 µg/g
same,DHA Mean change from Baseline,"RBC, 2 g daily, Day 14",-2.0 µg/g
same,DPAn-3 Mean change from Baseline,"RBC, 2 g daily, Day 14",5.6 µg/g
same,EPA Mean change from Baseline,"RBC, 2 g daily, Day 14",26.9 µg/g
same,EPA/AA Mean (SD) change from Baseline,"RBC, 2 g daily, Day 14",0.2 (0.04)
same,AA Mean change from Baseline,"RBC, 2 g daily, Day 28",-14.1 µg/g
same,DGLA Mean change from Baseline,"RBC, 2 g daily, Day 28",-4.5 µg/g
same,DHA Mean change from Baseline,"RBC, 2 g daily, Day 28",-6.2 µg/g
same,DPAn-3 Mean change from Baseline,"RBC, 2 g daily, Day 28",9.4 µg/g
same,EPA Mean change from Baseline,"RBC, 2 g daily, Day 28",32.9 µg/g
same,EPA/AA Mean (SD) change from Baseline,"RBC, 2 g daily, Day 28",0.02 (0.06)
same,AA Mean change from Baseline,"RBC, 2 g daily, Day 42",-18.8 µg/g
same,DGLA Mean change from Baseline,"RBC, 2 g daily, Day 42",-5.3 µg/g
same,DHA Mean change from Baseline,"RBC, 2 g daily, Day 42",-6.3 µg/g
same,DPAn-3 Mean change from Baseline,"RBC, 2 g daily, Day 42",13.2 µg/g
same,EPA Mean change from Baseline,"RBC, 2 g daily, Day 42",38.3 µg/g
same,EPA/AA Mean (SD) change from Baseline,"RBC, 2 g daily, Day 42",0.3 (0.06)
same,"AA LS Mean, 1 or 2 g versus 4 g","RBC, 2 g versus 4 g",9.8 µg/g
same,"DGLA LS Mean, 1 or 2 g versus 4 g","RBC, 2 g versus 4 g",1.5 µg/g
same,"DHA LS Mean, 1 or 2 g versus 4 g","RBC, 2 g versus 4 g",1.0 µg/g
same,"DPAn-3 LS Mean, 1 or 2 g versus 4 g","RBC, 2 g versus 4 g",-2.5 µg/g
same,"EPA LS Mean, 1 or 2 g versus 4 g","RBC, 2 g versus 4 g",-11.8 µg/g
same,"EPA/AA LS Mean, 1 or 2 g versus 4 g","RBC, 2 g versus 4 g",−0.11
same,AA Mean (SD) at Baseline,"RBC, 4 g daily group, Baseline",171.0 (25.17) μg/g
same,DGLA Mean at Baseline,"RBC, 4 g daily group, Baseline",24.0 µg/g
same,DHA Mean at Baseline,"RBC, 4 g daily group, Baseline",68.3 µg/g
same,DPAn-3 Mean at Baseline,"RBC, 4 g daily group, Baseline",34.5 µg/g
same,EPA Mean at Baseline,"RBC, 4 g daily group, Baseline",19.8 µg/g
same,EPA/AA Mean (SD) at Baseline,"RBC, 4 g daily group, Baseline",0.1 (0.04)
same,AA Mean (SD) change from Baseline,"RBC, 4 g daily, Day 14",−15.7 (26.76) μg/g
same,DGLA Mean change from Baseline,"RBC, 4 g daily, Day 14",-5.3 µg/g
same,DHA Mean change from Baseline,"RBC, 4 g daily, Day 14",-6.9 µg/g
same,DPAn-3 Mean change from Baseline,"RBC, 4 g daily, Day 14",5.4 µg/g
same,EPA Mean change from Baseline,"RBC, 4 g daily, Day 14",39.5 µg/g
same,EPA/AA Mean (SD) change from Baseline,"RBC, 4 g daily, Day 14",0.3 (0.07)
same,AA Mean (SD) change from Baseline,"RBC, 4 g daily, Day 28",−22.8 (29.56) μg/g
same,DGLA Mean change from Baseline,"RBC, 4 g daily, Day 28",-7.1 µg/g
same,DHA Mean change from Baseline,"RBC, 4 g daily, Day 28",-8.7 µg/g
same,DPAn-3 Mean change from Baseline,"RBC, 4 g daily, Day 28",12.4 µg/g
same,EPA Mean change from Baseline,"RBC, 4 g daily, Day 28",50.2 µg/g
same,EPA/AA Mean (SD) change from Baseline,"RBC, 4 g daily, Day 28",0.4 (0.11)
same,AA Mean (SD) change from Baseline,"RBC, 4 g daily, Day 42",−34.4 (31.44) μg/g
same,DGLA Mean change from Baseline,"RBC, 4 g daily, Day 42",-8.0 µg/g
same,DHA Mean change from Baseline,"RBC, 4 g daily, Day 42",-13.8 µg/g
same,DPAn-3 Mean change from Baseline,"RBC, 4 g daily, Day 42",16.2 µg/g
same,EPA Mean change from Baseline,"RBC, 4 g daily, Day 42",52.5 µg/g
same,EPA/AA Mean (SD) change from Baseline,"RBC, 4 g daily, Day 42",0.4 (0.14)
same,"Difference in EPA, AA (RBC only), DPAn-3, DGLA (1 g only for plasma) and EPA/AA ratio levels, 4 g compared to 1 g and 2 g","plasma and RBC, LS means, p≤0.05","significantly (LS means, p≤0.05) different"
